Assay results taken from patent publication US10940201B2, “Nucleic acid derivative having immunostimulatory activity” (Shionogi & Co., Ltd., priority 2015, dated 2021).

Assay: Subcutaneous irritation test in a single dose
Assay type: in vivo, rats
Conditions: for Gross: Crust / Gross: White matter accumulation / Histopathological, Subcutaneous: Cyst-like structure / Histopathological, Subcutaneous tissue: Cyst-like structure / Gross: Dark red spots / Gross: Edema / Gross: Epidermis: Crust: number of the observed animals; for Histopathological, Dermis: Inflammatory cell infiltration / Histopathological, Subcutaneous: Granulomatous inflammation / Histopathological, Subcutaneous: Inflammatory cell infiltration / Histopathological, Subcutaneous: Edema / Histopathological, Muscle layer: Edema / Histopathological, Muscle layer: Inflammatory cell infiltration / Histopathological, Muscle layer: Necrosis / Histopathological, Subcutaneous tissue: Bleeding / Histopathological, Subcutaneous tissue: Edema / Histopathological, Subcutaneous tissue: Inflammatory cell infiltration / Histopathological, Subcutaneous tissue: Necrosis / Histopathological, Subcutaneous: Necrosis: total score of grades
Procedure: Subcutaneous irritation of a compound of the present invention was evaluated by gross examination and histopathological examination about the skin at necropsy one day, one and four week(s) after subcutaneous administration in a single dose.
The compound of the present invention was subcutaneously administered to the center of back between the shoulder blades of rats. At necropsy one day, one or four week(s) after administration (isoflurane anesthesia, euthanasia by bleeding), skin at the administration site was collected, grossly observed and fixed in 10% neutral buffered formalin solution. The fixed skin was cut out, embedded and put in a thin slice by the usual methods, and Hematoxylin-eosin (HE) stained sections were made. The pathological observers were observed the HE stained sections by an optical microscope, and recorded the histopathological findings. The changes in pathological findings were evaluated in four grades of Minimal; ±, Mild; +, Moderate; 2+ and Marked; 3+. When any grade was not appropriate for the finding, it was recorded as Positive.
SEQ-2, SEQ-49 or an adjuvant of the present invention was dissolved in phosphate buffered saline and administered at 4.71, 15.7 or 47.1 nmol/1 mL/site, respectively.

[1] = four weeks after administration, 4.71 nmol/site
[2] = four weeks after administration, 15.7 nmol/site
[3] = four weeks after administration, 47.1 nmol/site
[4] = one day after administration, 4.71 nmol/site
[5] = one day after administration, 15.7 nmol/site
[6] = one day after administration, 47.1 nmol/site
[7] = one week after administration, 4.71 nmol/site
[8] = one week after administration, 15.7 nmol/site
[9] = one week after administration, 47.1 nmol/site

Question: With Amph1826 [SEQ-2] as the substance, how does the “Number of deaths/imminent dissections” value [1] read?
Answer: Its value is 0/0.

Question: What about the “Gross: Crust” value [1] of the same substance?
Answer: The value was 0.

Question: And the “Gross: White matter accumulation” value [1]?
Answer: The value was 0.

Question: What about the “Histopathological, Subcutaneous: Cyst-like structure” value [1] of the same substance?
Answer: The value was 0.

Question: And the “Histopathological, Dermis: Inflammatory cell infiltration” value (from here on “Histopathological, Dermis”) [1]?
Answer: Its value is 0.

Question: And the “Histopathological, Subcutaneous: Granulomatous inflammation” value [1]?
Answer: Its value is 4.

Question: What about the “Histopathological, Subcutaneous: Inflammatory cell infiltration” value [1] of the same substance?
Answer: The value was 0.

Question: What about the “Number of deaths/imminent dissections” value [2] of the same substance?
Answer: Its value is 0/0.

Question: What about the “Gross: Crust” value [2] of the same substance?
Answer: Its value is 0.

Question: And the “Gross: White matter accumulation” value [2]?
Answer: Its value is 0.

Question: What about the “Histopathological, Subcutaneous: Cyst-like structure” value [2] of the same substance?
Answer: Its value is 0.

Question: What about the “Histopathological, Dermis” value [2] of the same substance?
Answer: The value was 4.

Question: What about the “Histopathological, Subcutaneous: Edema” value [2] of the same substance?
Answer: Its value is 0.

Question: What about the “Histopathological, Subcutaneous: Granulomatous inflammation” value [2] of the same substance?
Answer: Its value is 5.

Question: What about the “Histopathological, Subcutaneous: Inflammatory cell infiltration” value [2] of the same substance?
Answer: Its value is 0.

Question: What about the “Number of deaths/imminent dissections” value [3] of the same substance?
Answer: Its value is 0/0.

Question: And the “Gross: Crust” value [3]?
Answer: The value was 0.

Question: What about the “Gross: White matter accumulation” value [3] of the same substance?
Answer: The value was 0.

Question: And the “Histopathological, Subcutaneous: Cyst-like structure” value [3]?
Answer: The value was 0.

Question: And the “Histopathological, Dermis” value [3]?
Answer: The value was 7.

Question: What about the “Histopathological, Subcutaneous: Edema” value [3] of the same substance?
Answer: The value was 0.

Question: What about the “Histopathological, Subcutaneous: Granulomatous inflammation” value [3] of the same substance?
Answer: Its value is 7.

Question: What about the “Histopathological, Subcutaneous: Inflammatory cell infiltration” value [3] of the same substance?
Answer: Its value is 0.

Question: And the “Number of deaths/imminent dissections” value [4]?
Answer: The value was 0/0.

Question: What about the “Histopathological, Subcutaneous tissue: Cyst-like structure” value [4] of the same substance?
Answer: The value was 1.

Question: What about the “Histopathological, Dermis” value [4] of the same substance?
Answer: The value was 5.

Question: What about the “Histopathological, Muscle layer: Edema” value [4] of the same substance?
Answer: The value was 1.

Question: And the “Histopathological, Muscle layer: Inflammatory cell infiltration” value [4]?
Answer: The value was 4.

Question: And the “Histopathological, Muscle layer: Necrosis” value [4]?
Answer: The value was 0.

Question: What about the “Histopathological, Subcutaneous tissue: Bleeding” value (“Histopathological … Bleeding” below) [4] of the same substance?
Answer: Its value is 0.

Question: And the “Histopathological, Subcutaneous tissue: Edema” value [4]?
Answer: Its value is 3.

Question: And the “Histopathological, Subcutaneous tissue: Inflammatory cell infiltration” value [4]?
Answer: The value was 7.

Question: And the “Histopathological, Subcutaneous tissue: Necrosis” value [4]?
Answer: Its value is 1.

Question: What about the “Number of deaths/imminent dissections” value [5] of the same substance?
Answer: Its value is 0/0.

Question: And the “Histopathological, Subcutaneous tissue: Cyst-like structure” value [5]?
Answer: The value was 2.

Question: And the “Histopathological, Dermis” value [5]?
Answer: Its value is 9.

Question: And the “Histopathological, Muscle layer: Edema” value [5]?
Answer: The value was 3.

Question: What about the “Histopathological, Muscle layer: Inflammatory cell infiltration” value [5] of the same substance?
Answer: Its value is 7.

Question: What about the “Histopathological, Muscle layer: Necrosis” value [5] of the same substance?
Answer: Its value is 0.

Question: And the “Histopathological … Bleeding” value [5]?
Answer: The value was 3.

Question: And the “Histopathological, Subcutaneous tissue: Edema” value [5]?
Answer: The value was 5.

Question: And the “Histopathological, Subcutaneous tissue: Inflammatory cell infiltration” value [5]?
Answer: Its value is 6.

Question: And the “Histopathological, Subcutaneous tissue: Necrosis” value [5]?
Answer: The value was 1.

Question: What about the “Number of deaths/imminent dissections” value [6] of the same substance?
Answer: Its value is 0/0.

Question: And the “Histopathological, Subcutaneous tissue: Cyst-like structure” value [6]?
Answer: The value was 1.

Question: What about the “Histopathological, Dermis” value [6] of the same substance?
Answer: The value was 6.

Question: And the “Histopathological, Muscle layer: Edema” value [6]?
Answer: Its value is 4.

Question: What about the “Histopathological, Muscle layer: Inflammatory cell infiltration” value [6] of the same substance?
Answer: The value was 6.

Question: And the “Histopathological, Muscle layer: Necrosis” value [6]?
Answer: Its value is 0.

Question: What about the “Histopathological … Bleeding” value [6] of the same substance?
Answer: Its value is 3.

Question: What about the “Histopathological, Subcutaneous tissue: Edema” value [6] of the same substance?
Answer: The value was 6.

Question: What about the “Histopathological, Subcutaneous tissue: Inflammatory cell infiltration” value [6] of the same substance?
Answer: Its value is 6.

Question: And the “Histopathological, Subcutaneous tissue: Necrosis” value [6]?
Answer: The value was 1.

Question: And the “Number of deaths/imminent dissections” value [7]?
Answer: Its value is 0/0.

Question: And the “Gross: Dark red spots” value [7]?
Answer: The value was 0.

Question: What about the “Gross: Edema” value [7] of the same substance?
Answer: Its value is 0.

Question: What about the “Gross: Epidermis: Crust” value [7] of the same substance?
Answer: Its value is 0.

Question: What about the “Gross: White matter accumulation” value [7] of the same substance?
Answer: Its value is 0.

Question: What about the “Histopathological, Subcutaneous: Cyst-like structure” value [7] of the same substance?
Answer: Its value is 1.

Question: What about the “Histopathological, Dermis” value [7] of the same substance?
Answer: Its value is 4.

Question: And the “Histopathological, Muscle layer: Inflammatory cell infiltration” value [7]?
Answer: The value was 0.

Question: What about the “Histopathological, Subcutaneous: Edema” value [7] of the same substance?
Answer: The value was 3.

Question: What about the “Histopathological, Subcutaneous: Granulomatous inflammation” value [7] of the same substance?
Answer: The value was 0.

Question: And the “Histopathological, Subcutaneous: Necrosis” value [7]?
Answer: The value was 0.

Question: What about the “Number of deaths/imminent dissections” value [8] of the same substance?
Answer: Its value is 0/0.

Question: What about the “Gross: Dark red spots” value [8] of the same substance?
Answer: The value was 0.

Question: What about the “Gross: Edema” value [8] of the same substance?
Answer: The value was 1.

Question: What about the “Gross: Epidermis: Crust” value [8] of the same substance?
Answer: The value was 0.

Question: And the “Gross: White matter accumulation” value [8]?
Answer: Its value is 0.

Question: What about the “Histopathological, Subcutaneous: Cyst-like structure” value [8] of the same substance?
Answer: The value was 1.

Question: What about the “Histopathological, Dermis” value [8] of the same substance?
Answer: Its value is 6.

Question: And the “Histopathological, Muscle layer: Inflammatory cell infiltration” value [8]?
Answer: The value was 4.

Question: And the “Histopathological, Subcutaneous: Edema” value [8]?
Answer: The value was 4.

Question: What about the “Histopathological, Subcutaneous: Granulomatous inflammation” value [8] of the same substance?
Answer: Its value is 0.

Question: And the “Histopathological, Subcutaneous: Inflammatory cell infiltration” value [8]?
Answer: Its value is 8.

Question: What about the “Histopathological, Subcutaneous: Necrosis” value [8] of the same substance?
Answer: The value was 0.

Question: And the “Number of deaths/imminent dissections” value [9]?
Answer: The value was 0/0.

Question: And the “Gross: Dark red spots” value [9]?
Answer: The value was 0.

Question: And the “Gross: Edema” value [9]?
Answer: Its value is 1.

Question: And the “Gross: Epidermis: Crust” value [9]?
Answer: Its value is 0.

Question: What about the “Gross: White matter accumulation” value [9] of the same substance?
Answer: Its value is 0.

Question: What about the “Histopathological, Subcutaneous: Cyst-like structure” value [9] of the same substance?
Answer: The value was 3.

Question: What about the “Histopathological, Dermis” value [9] of the same substance?
Answer: Its value is 9.

Question: And the “Histopathological, Muscle layer: Inflammatory cell infiltration” value [9]?
Answer: The value was 6.

Question: What about the “Histopathological, Subcutaneous: Edema” value [9] of the same substance?
Answer: Its value is 3.

Question: What about the “Histopathological, Subcutaneous: Granulomatous inflammation” value [9] of the same substance?
Answer: The value was 0.

Question: And the “Histopathological, Subcutaneous: Inflammatory cell infiltration” value [9]?
Answer: Its value is 8.

Question: And the “Histopathological, Subcutaneous: Necrosis” value [9]?
Answer: Its value is 0.

Question: And the “subcutaneous irritation findings four weeks after administration” value (rats, single subcutaneous dose, four weeks)?
Answer: The value was “skin inflammation was not recovered, and granulomatous inflammation by continuous activation of monocyte/macrophage system was observed”.

Question: And the “subcutaneous irritation findings one day after administration” value (rats, single subcutaneous dose, one day)?
Answer: The value was “inflammation cellular infiltration, edema and crust were observed”.

Question: And the “subcutaneous irritation findings one week after administration” value (rats, single subcutaneous dose, one week)?
Answer: Its value is “inflammation cellular infiltration, edema and crust were observed”.
